Test results from patent publication US20240417428A1, “POLYPEPTIDE FOR INHIBITING TRPM8 AND USE THEREOF” (ZHEJIANG UNIVERSITY, priority 2021, published 2024).

Key:
[1] = molecular target: T1, TRPM8 (Mus musculus, UniProt Q8R4D5); experiment: Whole-cell electrophysiological recording, menthol-activated TRPM8 in transfected HEK293T cells; type: cell-based; parameters: expressed in transfected cells; host or cells: HEK293T; settings: negative control peptide
Experimental: (§1) HEK293T cells were cultured in Dulbecco's modified Eagle culture medium under a 37° C., 5% CO2 environment, 10% fetal bovine serum, penicillin (100 U/mL), and streptomycin ([…]) was needed to add into the culture medium. Transient transfection was conducted by using Lipo 2000 (Invitrogen) transfection kit and following the instruction manual.
(§2) Electrophysiological experiment recordings were performed on the cells within 24˜48 h of transient transfections. Specifically, single channel electrophysiological recordings were performed within 8 h after transfection.
Measurement of the cell currents was respectively performed in the whole-cell recording mode, inside-out recording mode or outside-out recording mode with a HEKA EPC10 amplifier. In the whole cell electrophysiological recordings, glass microelectrodes made of borosilicate material were fire-polished to a original electrode resistance of about 3-6 MΩ. Serial resistance was compensated by 60%. The whole cell electrophysiological recordings were performed at ±80 mV. For single channel electrophysiological recordings, glass microelectrodes were fire-polished to a higher resistance of 6-8 MΩ2. Current signal was sampled at 10 kHz and filtered at 2.9 kHz. Membrane potential of the cell membrane would be clamped at +80 mV. All electrophysiological recordings were performed at room temperature (22° C.) (the maximum variation is 1° C.). […]

[2] = molecular target: T1, TRPM8; experiment: Inside-out single-channel recording of menthol-activated TRPM8 at +80 mV; type: cell-based; parameters: expressed in transfected cells; host or cells: HEK293T; settings: saturating menthol (1 mM) alone
Experimental: as §1, §2
Measurement of the cell currents was respectively performed in the whole-cell recording mode, inside-out recording mode or outside-out recording mode with a HEKA EPC10 amplifier. In the whole cell electrophysiological recordings, glass microelectrodes made of borosilicate material were fire-polished to a original electrode resistance of about 3-6 MΩ. Serial resistance was compensated by 60%. The whole cell electrophysiological recordings were performed at ±80 mV. For single channel electrophysiological recordings, glass microelectrodes were fire-polished to a higher resistance of 6-8 MΩ2. Current signal was sampled at 10 kHz and filtered at 2.9 kHz. Membrane potential of the cell membrane would be clamped at +80 mV. All electrophysiological recordings were performed at room temperature (22° C.) (the maximum variation is 1° C.).
There were different bath and pipette solutions prepared for different ion channels current measurement. For ion channels such as TRPM8, TRPV1, TRPV2, TRPV3 and TRPA1, the formula of the bath and pipette solutions was: 130 mM NaCl, 0.2 mM EDTA and 3 mM HEPES, pH=7.2. For the current measurement of TRPM4 ion channel, the formula of the bath solution was: 130 mM NaCl and 3 mM HEPES, pH=7.2, and the formula of the pipette solution was: 500 μM CaCl2), 130 mM NaCl and 3 mM HEPES, pH=7.2. For the current measurement of TRPM2 ion channel, the formula of the bath solution was: 147 mM NaCl, 2 mM KCl, 1 mM MgCl2, 10 mM HEPES, 2 mM CaCl2) 13 mM Glucose, pH=7.4, and the formula of the pipette solution was: 147 mM NaCl, 1 mM MgCl2, 10 mM HEPES, pH=7.4. For the current measurement of Nav1.5, Nav1.7 ion channels, the formula of the bath solution was: 140 mM NaCl, 3 mM KCl, 1 mM MgCl2, 1 mM CaCl2), 10 mM HEPES, pH=7.2 and the formula of the pipette solution was: 140 mM CsF, 1 mM EGTA, 10 mM NaCl, 10 mM MgCl2, 3 mM KCl, pH=7.2. To evoke sodium channel current, the membrane potential was increased from −80 mV to +10 mV.
A rapid solution changer with a gravity-driven perfusion system (RSC-200, BioLogic) was used to rapidly perfuse specific solutions into the cells to be tested. Each solution was delivered through a separate tube so that there is no mixing of solutions. The glass microelectrode with a membrane patch was placed directly below the outlet of the perfusion tube during the electrophysiology recordings.

T1 sequence (Q8R4D5 whole entry): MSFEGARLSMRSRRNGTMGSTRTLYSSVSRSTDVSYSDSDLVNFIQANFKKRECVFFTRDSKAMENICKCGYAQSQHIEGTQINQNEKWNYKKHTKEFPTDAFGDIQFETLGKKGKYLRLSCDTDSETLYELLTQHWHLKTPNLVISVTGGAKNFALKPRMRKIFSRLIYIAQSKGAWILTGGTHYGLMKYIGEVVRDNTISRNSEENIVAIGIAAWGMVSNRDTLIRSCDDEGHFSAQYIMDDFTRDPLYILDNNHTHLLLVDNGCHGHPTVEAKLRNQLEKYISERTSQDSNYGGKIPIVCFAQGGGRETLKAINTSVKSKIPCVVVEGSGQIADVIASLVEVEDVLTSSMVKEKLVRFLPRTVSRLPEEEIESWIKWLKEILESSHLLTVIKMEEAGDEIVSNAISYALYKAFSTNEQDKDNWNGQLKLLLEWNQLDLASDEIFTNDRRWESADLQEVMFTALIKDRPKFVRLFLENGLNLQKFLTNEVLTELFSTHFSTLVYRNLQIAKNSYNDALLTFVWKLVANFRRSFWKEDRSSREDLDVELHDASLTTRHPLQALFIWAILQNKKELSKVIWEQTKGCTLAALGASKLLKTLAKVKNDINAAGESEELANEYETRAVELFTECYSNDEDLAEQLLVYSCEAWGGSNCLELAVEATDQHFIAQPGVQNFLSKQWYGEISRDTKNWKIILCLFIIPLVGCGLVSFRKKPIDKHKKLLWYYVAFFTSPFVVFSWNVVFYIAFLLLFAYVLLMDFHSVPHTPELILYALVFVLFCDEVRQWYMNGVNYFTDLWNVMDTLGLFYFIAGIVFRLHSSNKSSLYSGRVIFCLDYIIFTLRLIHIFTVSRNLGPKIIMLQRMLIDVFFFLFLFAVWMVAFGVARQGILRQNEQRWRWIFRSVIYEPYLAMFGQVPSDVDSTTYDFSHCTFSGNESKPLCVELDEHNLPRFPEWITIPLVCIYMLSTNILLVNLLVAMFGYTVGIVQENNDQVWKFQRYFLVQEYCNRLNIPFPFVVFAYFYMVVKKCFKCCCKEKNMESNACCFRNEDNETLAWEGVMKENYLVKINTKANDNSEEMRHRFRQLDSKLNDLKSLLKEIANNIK

| Molecule | inhibition of TRPM8 [1] | maximum open probability of TRPM8 activation [2] [%] | single-channel conductance of TRPM8 ([2]; n=3) [pS] |
| --- | --- | --- | --- |
| CDHRRRQARYRRC [S-DeC-1.2, negative control polypeptide, reference compound] | did not inhibit TRPM8 | – | – |
| CC1CCC(C(C)C)C(O)C1 (stereo not drawn) [menthol, reference compound] | – | ~70 | 58.83±1.85 |
